PMC5605198, “MELK is not necessary for the proliferation of basal-like breast cancer cells” (eLife, 2017)
Where two headings read alike, the source gives them in different places.

Experiments:
MCF7 = experiment: Cell proliferation assay (CellTiter-Glo); conditions: Homo sapiens
BRSK1 = BRSK1 (Homo sapiens, UniProt Q8TDC3); experiment: ICKP radiometric kinase assay; format: biochemical; conditions: read-out: % AR (% kinase activity remaining)
[1] = test system: panel of breast cancer cell lines; experiment: 3-day proliferation assays, panel summary; format: cell-based
Text: As shRNA-mediated knockdown of MELK was previously reported to inhibit the proliferation of BBC cells, we next tested whether pharmacological inhibition of MELK would have similar effects. We treated a panel of breast cancer cell lines, including MDA-MB-468 and ZR-75-1 cells, with HTH-01-091 and other MELK inhibitors; despite our focus on basal-like breast cancers, we included luminal cell lines for comparison. […] We evaluated the inhibitors in longer-term (7-day) proliferation assays and still observed the same trend, and no clear difference between the breast cancer subtypes (Table 4). We authenticated our MDA-MB-468 line by short tandem repeat analysis, and repeated the proliferation assays using MDA-MB-468 cells from a second source to confirm the modest antiproliferative effects of the selective inhibitors (Table 4).

EPH-B4 = EPH-B4 (Homo sapiens, UniProt P54760); experiment: ICKP radiometric kinase assay; format: biochemical; conditions: read-out: % AR (% kinase activity remaining)
SIK3 = SIK3 (Homo sapiens, UniProt Q9Y2K2); experiment: ICKP radiometric kinase assay; format: biochemical; conditions: read-out: % AR (% kinase activity remaining)
p38 delta = p38 delta (Homo sapiens, UniProt O15264); experiment: ICKP radiometric kinase assay; format: biochemical; conditions: read-out: % AR (% kinase activity remaining)
BT-549 = experiment: Cell proliferation assay (CellTiter-Glo); conditions: Homo sapiens
PIM3 = PIM3 (Homo sapiens, UniProt Q86V86); experiment: ICKP radiometric kinase assay; format: biochemical; conditions: read-out: % AR (% kinase activity remaining)
RSK1 = RSK1 (Homo sapiens, UniProt Q15418); experiment: ICKP radiometric kinase assay; format: biochemical; conditions: read-out: % AR (% kinase activity remaining)
MARK4 = MARK4 (Homo sapiens, UniProt Q96L34); experiment: ICKP radiometric kinase assay; format: biochemical; conditions: read-out: % AR (% kinase activity remaining)
DAPK1 = DAPK1 (Homo sapiens, UniProt P53355); experiment: ICKP radiometric kinase assay; format: biochemical; conditions: read-out: % AR (% kinase activity remaining)
ERK5 = ERK5 (Homo sapiens, UniProt Q13164); experiment: ICKP radiometric kinase assay; format: biochemical; conditions: read-out: % AR (% kinase activity remaining)
PRK2 = PRK2 (Homo sapiens, UniProt Q16513); experiment: ICKP radiometric kinase assay; format: biochemical; conditions: read-out: % AR (% kinase activity remaining)
SRPK1 = SRPK1 (Homo sapiens, UniProt Q96SB4); experiment: ICKP radiometric kinase assay; format: biochemical; conditions: read-out: % AR (% kinase activity remaining)
STK33 = STK33 (Homo sapiens, UniProt Q9BYT3); experiment: ICKP radiometric kinase assay; format: biochemical; conditions: read-out: % AR (% kinase activity remaining)
CDK9-Cyclin T1 = CDK9-Cyclin T1 (Homo sapiens, UniProt P50750); experiment: ICKP radiometric kinase assay; format: biochemical; conditions: read-out: % AR (% kinase activity remaining)
NUAK1 = NUAK1 (Homo sapiens, UniProt O60285); experiment: ICKP radiometric kinase assay; format: biochemical; conditions: read-out: % AR (% kinase activity remaining)
TAK1 = TAK1 (Homo sapiens, UniProt O43318); experiment: ICKP radiometric kinase assay; format: biochemical; conditions: read-out: % AR (% kinase activity remaining)
MELK = MELK (Homo sapiens, UniProt Q14680); experiment: ICKP radiometric kinase assay; format: biochemical; conditions: for remaining activity at 1 µM: read-out: % AR (% kinase activity remaining)
ZR-75-1 = experiment: Cell proliferation assay (CellTiter-Glo); conditions: Homo sapiens, ZR-75-1, 72 h, read-out: 3-day antiproliferative IC50
PAK6 = PAK6 (Homo sapiens, UniProt Q9NQU5); experiment: ICKP radiometric kinase assay; format: biochemical; conditions: read-out: % AR (% kinase activity remaining)
IKK epsilon = IKK epsilon (Homo sapiens, UniProt Q14164); experiment: ICKP radiometric kinase assay; format: biochemical; conditions: read-out: % AR (% kinase activity remaining)
PLK1 = PLK1 (Homo sapiens, UniProt P53350); experiment: ICKP radiometric kinase assay; format: biochemical; conditions: read-out: % AR (% kinase activity remaining)
ERK8 = ERK8 (Homo sapiens, UniProt Q8TD08); experiment: ICKP radiometric kinase assay; format: biochemical; conditions: read-out: % AR (% kinase activity remaining)
CK1 delta = CK1 delta (Homo sapiens, UniProt P48730); experiment: ICKP radiometric kinase assay; format: biochemical; conditions: read-out: % AR (% kinase activity remaining)
TAO1 = TAO1 (Homo sapiens, UniProt Q7L7X3); experiment: ICKP radiometric kinase assay; format: biochemical; conditions: read-out: % AR (% kinase activity remaining)
p38 beta = p38 beta (Homo sapiens, UniProt Q15759); experiment: ICKP radiometric kinase assay; format: biochemical; conditions: read-out: % AR (% kinase activity remaining)
CLK2 = CLK2 (Homo sapiens, UniProt P49760); experiment: ICKP radiometric kinase assay; format: biochemical; conditions: read-out: % AR (% kinase activity remaining)
EPH-B3 = EPH-B3 (Homo sapiens, UniProt P54753); experiment: ICKP radiometric kinase assay; format: biochemical; conditions: read-out: % AR (% kinase activity remaining)
TTBK2 = TTBK2 (Homo sapiens, UniProt Q6IQ55); experiment: ICKP radiometric kinase assay; format: biochemical; conditions: read-out: % AR (% kinase activity remaining)
NEK2a = NEK2a (Homo sapiens, UniProt P51955); experiment: ICKP radiometric kinase assay; format: biochemical; conditions: read-out: % AR (% kinase activity remaining)
ZAP70 = ZAP70 (Homo sapiens, UniProt P43403); experiment: ICKP radiometric kinase assay; format: biochemical; conditions: read-out: % AR (% kinase activity remaining)
TTBK1 = TTBK1 (Homo sapiens, UniProt Q5TCY1); experiment: ICKP radiometric kinase assay; format: biochemical; conditions: read-out: % AR (% kinase activity remaining)
JAK2 = JAK2 (Homo sapiens, UniProt O60674); experiment: ICKP radiometric kinase assay; format: biochemical; conditions: read-out: % AR (% kinase activity remaining)
PKB alpha = PKB alpha (Homo sapiens, UniProt P31749); experiment: ICKP radiometric kinase assay; format: biochemical; conditions: read-out: % AR (% kinase activity remaining)
MST2 = MST2 (Homo sapiens, UniProt Q13188); experiment: ICKP radiometric kinase assay; format: biochemical; conditions: read-out: % AR (% kinase activity remaining)
RIPK2 = RIPK2 (Homo sapiens, UniProt O43353); experiment: ICKP radiometric kinase assay; format: biochemical; conditions: for remaining activity at 1 µM: read-out: % AR (% kinase activity remaining)
HER4 = HER4 (Homo sapiens, UniProt Q15303); experiment: ICKP radiometric kinase assay; format: biochemical; conditions: read-out: % AR (% kinase activity remaining)
[2] = MCF7, 72 h, read-out: 3-day antiproliferative IC50
[3] = MCF7, 168 h, read-out: 7-day antiproliferative IC50
[4] = BT-549, 72 h, read-out: 3-day antiproliferative IC50
[5] = BT-549, 168 h, read-out: 7-day antiproliferative IC50

Sequence of RIPK2 (O43353 whole entry, species assumed): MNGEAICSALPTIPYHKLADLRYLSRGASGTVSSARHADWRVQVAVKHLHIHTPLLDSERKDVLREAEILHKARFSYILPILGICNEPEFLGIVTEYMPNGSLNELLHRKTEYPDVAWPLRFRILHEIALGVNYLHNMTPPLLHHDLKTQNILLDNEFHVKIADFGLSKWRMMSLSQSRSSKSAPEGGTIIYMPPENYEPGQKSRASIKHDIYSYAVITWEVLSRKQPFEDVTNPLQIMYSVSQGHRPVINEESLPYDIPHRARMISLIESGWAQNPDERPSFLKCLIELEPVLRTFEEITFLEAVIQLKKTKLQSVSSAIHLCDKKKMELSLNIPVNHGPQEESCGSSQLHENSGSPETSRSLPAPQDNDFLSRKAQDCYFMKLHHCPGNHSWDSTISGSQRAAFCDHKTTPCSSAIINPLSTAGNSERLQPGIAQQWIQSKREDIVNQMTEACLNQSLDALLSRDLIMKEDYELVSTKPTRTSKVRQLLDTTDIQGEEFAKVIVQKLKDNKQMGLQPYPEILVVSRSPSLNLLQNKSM
Sequence of MELK (Q14680 whole entry): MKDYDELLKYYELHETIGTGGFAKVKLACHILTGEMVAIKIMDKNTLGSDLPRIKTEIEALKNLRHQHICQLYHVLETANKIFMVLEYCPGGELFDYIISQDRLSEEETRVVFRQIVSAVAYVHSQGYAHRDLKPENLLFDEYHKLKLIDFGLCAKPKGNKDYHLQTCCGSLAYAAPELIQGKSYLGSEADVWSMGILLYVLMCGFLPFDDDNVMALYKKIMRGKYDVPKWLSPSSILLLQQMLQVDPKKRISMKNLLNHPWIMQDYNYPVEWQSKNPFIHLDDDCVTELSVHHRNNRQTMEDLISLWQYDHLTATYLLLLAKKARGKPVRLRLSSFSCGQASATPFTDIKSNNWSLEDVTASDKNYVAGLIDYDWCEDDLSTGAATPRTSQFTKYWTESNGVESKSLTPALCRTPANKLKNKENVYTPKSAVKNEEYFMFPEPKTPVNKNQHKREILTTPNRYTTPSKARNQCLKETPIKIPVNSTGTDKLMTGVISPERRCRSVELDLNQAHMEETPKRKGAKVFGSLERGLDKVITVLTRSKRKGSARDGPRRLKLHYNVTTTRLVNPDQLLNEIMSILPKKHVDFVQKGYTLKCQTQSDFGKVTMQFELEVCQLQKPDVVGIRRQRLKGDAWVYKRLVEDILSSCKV
Sequence of ERK5 (Q13164 whole entry): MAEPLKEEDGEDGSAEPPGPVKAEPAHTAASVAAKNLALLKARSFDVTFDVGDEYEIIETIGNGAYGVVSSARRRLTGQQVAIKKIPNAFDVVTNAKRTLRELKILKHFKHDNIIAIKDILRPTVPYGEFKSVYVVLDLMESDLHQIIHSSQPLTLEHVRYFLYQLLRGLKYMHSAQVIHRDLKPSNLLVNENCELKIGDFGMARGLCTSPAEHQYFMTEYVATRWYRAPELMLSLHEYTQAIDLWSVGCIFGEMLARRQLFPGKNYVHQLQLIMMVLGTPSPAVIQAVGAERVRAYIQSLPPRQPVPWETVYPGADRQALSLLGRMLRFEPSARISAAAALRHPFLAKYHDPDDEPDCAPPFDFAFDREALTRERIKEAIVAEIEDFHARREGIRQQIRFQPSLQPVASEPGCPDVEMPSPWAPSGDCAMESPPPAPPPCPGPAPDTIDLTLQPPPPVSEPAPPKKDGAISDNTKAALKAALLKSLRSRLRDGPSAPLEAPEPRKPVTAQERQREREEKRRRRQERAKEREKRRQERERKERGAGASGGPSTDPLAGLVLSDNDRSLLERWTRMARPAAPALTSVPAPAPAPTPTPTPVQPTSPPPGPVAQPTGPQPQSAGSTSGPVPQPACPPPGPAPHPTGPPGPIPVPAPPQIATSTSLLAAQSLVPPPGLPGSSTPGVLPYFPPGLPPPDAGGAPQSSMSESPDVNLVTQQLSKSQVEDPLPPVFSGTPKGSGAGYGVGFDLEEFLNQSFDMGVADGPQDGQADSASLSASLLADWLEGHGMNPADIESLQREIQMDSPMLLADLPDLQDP
Sequence of PKB alpha (P31749 whole entry): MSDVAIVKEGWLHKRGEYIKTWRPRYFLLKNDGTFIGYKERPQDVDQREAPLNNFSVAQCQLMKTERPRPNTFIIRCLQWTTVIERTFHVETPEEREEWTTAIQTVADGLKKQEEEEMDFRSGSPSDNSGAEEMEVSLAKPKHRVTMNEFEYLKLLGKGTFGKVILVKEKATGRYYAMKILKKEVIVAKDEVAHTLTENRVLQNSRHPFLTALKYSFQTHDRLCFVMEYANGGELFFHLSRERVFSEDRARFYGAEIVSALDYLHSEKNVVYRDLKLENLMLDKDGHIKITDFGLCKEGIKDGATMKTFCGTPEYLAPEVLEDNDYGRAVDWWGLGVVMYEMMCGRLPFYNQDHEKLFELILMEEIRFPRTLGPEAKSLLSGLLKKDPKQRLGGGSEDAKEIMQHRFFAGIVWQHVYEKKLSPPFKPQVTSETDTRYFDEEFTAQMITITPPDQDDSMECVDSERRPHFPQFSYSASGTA
Sequence of HER4 (Q15303 26-1308): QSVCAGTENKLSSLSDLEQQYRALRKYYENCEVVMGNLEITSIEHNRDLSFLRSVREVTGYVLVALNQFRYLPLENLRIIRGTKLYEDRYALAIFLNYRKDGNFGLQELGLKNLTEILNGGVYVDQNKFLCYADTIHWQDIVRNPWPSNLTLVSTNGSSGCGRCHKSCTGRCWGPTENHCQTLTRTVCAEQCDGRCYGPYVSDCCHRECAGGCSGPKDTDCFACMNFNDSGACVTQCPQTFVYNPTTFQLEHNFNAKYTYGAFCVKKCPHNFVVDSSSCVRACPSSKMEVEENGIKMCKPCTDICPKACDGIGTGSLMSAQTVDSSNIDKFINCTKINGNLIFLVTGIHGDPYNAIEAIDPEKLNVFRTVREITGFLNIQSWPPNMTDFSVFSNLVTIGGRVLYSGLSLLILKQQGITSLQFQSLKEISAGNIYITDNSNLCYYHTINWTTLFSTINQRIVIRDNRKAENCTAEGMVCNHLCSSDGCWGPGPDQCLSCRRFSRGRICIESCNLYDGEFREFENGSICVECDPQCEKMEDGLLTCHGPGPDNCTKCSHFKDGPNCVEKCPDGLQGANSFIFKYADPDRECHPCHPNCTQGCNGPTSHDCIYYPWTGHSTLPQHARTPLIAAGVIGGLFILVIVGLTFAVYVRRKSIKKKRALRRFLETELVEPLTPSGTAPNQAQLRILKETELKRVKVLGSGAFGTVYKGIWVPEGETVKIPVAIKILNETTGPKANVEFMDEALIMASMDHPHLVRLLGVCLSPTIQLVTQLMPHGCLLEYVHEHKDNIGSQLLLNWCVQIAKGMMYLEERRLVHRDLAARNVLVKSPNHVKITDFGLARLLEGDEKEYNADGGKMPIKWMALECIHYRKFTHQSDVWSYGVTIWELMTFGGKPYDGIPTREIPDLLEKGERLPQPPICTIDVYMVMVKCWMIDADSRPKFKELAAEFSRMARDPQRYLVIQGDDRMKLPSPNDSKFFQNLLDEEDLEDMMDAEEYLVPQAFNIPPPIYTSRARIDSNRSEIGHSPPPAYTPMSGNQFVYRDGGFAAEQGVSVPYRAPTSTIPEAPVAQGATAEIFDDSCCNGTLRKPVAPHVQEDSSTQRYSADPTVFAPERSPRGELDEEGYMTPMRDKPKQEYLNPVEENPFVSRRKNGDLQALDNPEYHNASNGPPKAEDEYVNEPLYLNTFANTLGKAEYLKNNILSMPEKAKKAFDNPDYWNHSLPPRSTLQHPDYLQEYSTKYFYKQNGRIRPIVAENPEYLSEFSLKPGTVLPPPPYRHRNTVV
Sequence of SRPK1 (Q96SB4 whole entry): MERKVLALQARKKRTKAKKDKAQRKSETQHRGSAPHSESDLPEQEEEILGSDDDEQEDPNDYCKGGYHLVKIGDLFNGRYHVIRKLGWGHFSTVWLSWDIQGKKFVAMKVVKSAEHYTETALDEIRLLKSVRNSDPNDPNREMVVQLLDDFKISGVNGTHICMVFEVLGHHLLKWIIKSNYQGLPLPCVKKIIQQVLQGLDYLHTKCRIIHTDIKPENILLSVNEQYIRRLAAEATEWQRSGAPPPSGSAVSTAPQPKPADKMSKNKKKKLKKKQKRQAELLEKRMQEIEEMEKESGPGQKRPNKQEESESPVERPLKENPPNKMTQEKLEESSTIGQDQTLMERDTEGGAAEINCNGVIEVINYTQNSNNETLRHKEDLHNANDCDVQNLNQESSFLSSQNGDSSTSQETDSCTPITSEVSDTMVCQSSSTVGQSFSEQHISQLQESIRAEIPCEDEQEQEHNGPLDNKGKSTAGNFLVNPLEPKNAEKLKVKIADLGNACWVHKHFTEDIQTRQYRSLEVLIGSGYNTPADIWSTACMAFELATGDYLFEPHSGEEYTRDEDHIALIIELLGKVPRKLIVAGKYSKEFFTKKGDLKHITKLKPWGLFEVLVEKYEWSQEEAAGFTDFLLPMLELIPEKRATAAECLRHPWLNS
Sequence of MST2 (Q13188 whole entry): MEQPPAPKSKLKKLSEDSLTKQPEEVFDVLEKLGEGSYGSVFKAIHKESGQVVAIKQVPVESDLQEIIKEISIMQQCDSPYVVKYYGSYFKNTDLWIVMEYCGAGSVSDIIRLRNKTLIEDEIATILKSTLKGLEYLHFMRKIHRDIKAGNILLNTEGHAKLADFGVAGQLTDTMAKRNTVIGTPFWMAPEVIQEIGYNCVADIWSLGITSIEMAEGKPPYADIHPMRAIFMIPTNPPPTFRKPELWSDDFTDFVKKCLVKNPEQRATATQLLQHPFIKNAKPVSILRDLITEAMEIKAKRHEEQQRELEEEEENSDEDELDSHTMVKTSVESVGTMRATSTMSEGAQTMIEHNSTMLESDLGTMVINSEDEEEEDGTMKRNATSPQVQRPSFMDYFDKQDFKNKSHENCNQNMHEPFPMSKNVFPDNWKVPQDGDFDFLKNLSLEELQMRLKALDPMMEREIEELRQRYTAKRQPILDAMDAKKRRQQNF

CN(C)C[C@H]1CC[C@H](N2C(=O)NCc3cnc4ccc(-c5cc(Cl)c(O)c(Cl)c5)cc4c32)CC1 [HTH-01-091, 9-(3,5-dichloro-4-hydroxyphenyl)-1-(trans-4-((dimethylamino)methyl)cyclohexyl)-3,4-dihydropyrimido[5,4 c]quinolin-2(1H)-one]
IC50 (MCF7; [2]): 8750 nM
IC50 (MCF7; [3]): 4130 nM
remaining activity at 1 µM (BRSK1): 85%
antiproliferative IC50 values, fold less potent than OTSSP167 [1]: at least 300 fold
remaining activity at 1 µM (EPH-B4): 104%
remaining activity at 1 µM (SIK3): 83%
remaining activity at 1 µM (p38 delta): 89%
IC50 (BT-549; [4]): 6160 nM
IC50 (BT-549; [5]): 2820 nM
remaining activity at 1 µM (PIM3): 1%
remaining activity at 1 µM (RSK1): 48%
remaining activity at 1 µM (MARK4): 95%
remaining activity at 1 µM (DAPK1): 15%
remaining activity at 1 µM (ERK5): 70%
remaining activity at 1 µM (PRK2): 77%
remaining activity at 1 µM (SRPK1): 94%
remaining activity at 1 µM (STK33): 26%
remaining activity at 1 µM (CDK9-Cyclin T1): 92%
remaining activity at 1 µM (NUAK1): 66%
remaining activity at 1 µM (TAK1): 22%
remaining activity at 1 µM (MELK): 13%
IC50 (MELK; radioactive filter-binding assay provided by the ICKP, read-out: Enzymatic IC50 MELK): 15.3 nM
IC50 (ZR-75-1): > 10000 nM
remaining activity at 1 µM (PAK6): 89%
remaining activity at 1 µM (IKK epsilon): 92%
remaining activity at 1 µM (PLK1): 95%
remaining activity at 1 µM (ERK8): 24%
remaining activity at 1 µM (CK1 delta): 36%
remaining activity at 1 µM (TAO1): 18%
remaining activity at 1 µM (p38 beta): 85%
remaining activity at 1 µM (CLK2): 11%
remaining activity at 1 µM (EPH-B3): 99%
remaining activity at 1 µM (TTBK2): 86%
remaining activity at 1 µM (NEK2a): 100%
remaining activity at 1 µM (ZAP70): 98%
remaining activity at 1 µM (TTBK1): 103%
remaining activity at 1 µM (JAK2): 39%
remaining activity at 1 µM (PKB alpha): 101%
remaining activity at 1 µM (MST2): 45%
remaining activity at 1 µM (RIPK2): 3%
IC50 (RIPK2; radioactive filter-binding assay provided by the ICKP, read-out: Enzymatic IC50 RIPK2): 42.5 nM
remaining activity at 1 µM (HER4): 84%

CC(=O)c1cnc2ccc(-c3cc(Cl)c(O)c(Cl)c3)nc2c1N[C@H]1CC[C@H](CN(C)C)CC1 [OTSSP167]
IC50 (MCF7; [2]): 35 nM
IC50 (MCF7; [3]): 27 nM
remaining activity at 1 µM (BRSK1): 2%
IC50 ([1]; 72 h, most cell lines tested, read-out: half maximal killing): < 100 nM
remaining activity at 1 µM (EPH-B4): 2%
remaining activity at 1 µM (SIK3): 4%
remaining activity at 1 µM (p38 delta): 4%
IC50 (BT-549; [4]): 21 nM
IC50 (BT-549; [5]): 9 nM
remaining activity at 1 µM (PIM3): 1%
remaining activity at 1 µM (RSK1): 3%
remaining activity at 1 µM (MARK4): 14%
remaining activity at 1 µM (DAPK1): 1%
remaining activity at 1 µM (ERK5): 4%
remaining activity at 1 µM (PRK2): 2%
remaining activity at 1 µM (SRPK1): 10%
remaining activity at 1 µM (STK33): 10%
remaining activity at 1 µM (CDK9-Cyclin T1): 4%
remaining activity at 1 µM (NUAK1): 0%
remaining activity at 1 µM (TAK1): 1%
remaining activity at 1 µM (MELK): 6%
IC50 (ZR-75-1): 55 nM
remaining activity at 1 µM (PAK6): 29%
remaining activity at 1 µM (IKK epsilon): 2%
remaining activity at 1 µM (PLK1): 3%
remaining activity at 1 µM (ERK8): 1%
remaining activity at 1 µM (CK1 delta): 6%
remaining activity at 1 µM (TAO1): 3%
remaining activity at 1 µM (p38 beta): 6%
remaining activity at 1 µM (CLK2): 0%
remaining activity at 1 µM (EPH-B3): 18%
remaining activity at 1 µM (TTBK2): 91%
remaining activity at 1 µM (NEK2a): 59%
remaining activity at 1 µM (ZAP70): 78%
remaining activity at 1 µM (TTBK1): 82%
remaining activity at 1 µM (JAK2): 3%
remaining activity at 1 µM (PKB alpha): 28%
remaining activity at 1 µM (MST2): 7%
remaining activity at 1 µM (RIPK2): 4%
remaining activity at 1 µM (HER4): 4%
